The values that follow come from ChEMBL document CHEMBL1201862, “PubChem BioAssay data set” (2004).

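Cultured in 96-well plates, cells were exposed to test compound for 48 hours across five concentrations. At the GI50, growth is halved.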 Active and inactive are the calls of the source. No stated cut-off is given here; in the data, active = GI50 up to about 1.1 µM and inactive = higher.

Among the test systems are A498; COLO 205; HCC 2998; HCT-15; HOP-62; M14; Malme-3M; OVCAR-8; SK-MEL-2; TK-10; UACC-257; UACC-62; CAKI-1; OVCAR-4; SNB-75.
What all share (assay): growth of human tumour cells (NCI), 48 h

For the compound `C=CCn1c(=O)n(CC=C)c(=O)n(CC=C)c1=O`, the GI50 in the test on A498 is > 100 µM (inactive); in the test with COLO 205, > 100 µM (inactive); in the test with HCC 2998 it was > 100 µM (inactive); in the test with HCT-15, more than 100 µM; with HOP-62, > 100 µM (inactive); in the test with M14, > 100 µM (inactive). Also, the GI50 in the test with Malme-3M, in the test on OVCAR-8, with SK-MEL-2, in the test with TK-10, in the test on UACC-257 and with UACC-62 was > 100 µM (inactive) each time.

Take `COc1cc2c(cc1OC)C1Cc3ccc(OC)c(OC)c3C[N+]1([O-])CC2` (stereo not given): the GI50 with A498, with CAKI-1, in the test with HCC 2998, in the test with HOP-62, in the test with M14 and in the test with Malme-3M was > 100 µM (inactive) throughout. Besides, the GI50 with OVCAR-4, in the test on OVCAR-8, in the test on SK-MEL-2, in the test with SNB-75, in the test on TK-10 and in the test with UACC-257 was > 100 µM (inactive) throughout.

Turning to `CC1(C2CCC3(C)OC3C2)CO1` (stereo not given), the GI50 in the test with CAKI-1, in the test with COLO 205, in the test on HCC 2998, with HOP-62, in the test with M14 and in the test on Malme-3M was > 100 µM (inactive) throughout. Also, the GI50 with OVCAR-4, in the test on OVCAR-8, in the test with SK-MEL-2, in the test with SNB-75, with TK-10 and in the test with UACC-257 was > 100 µM (inactive) each time. Moreover, the GI50 with UACC-62 is > 100 µM (inactive).

Consider `COC(=O)[C@H]1C=C[C@@H](C)n2c(=O)c3cc4ccccc4cc3c(=O)n21`, for which the GI50 in the test on A498 was > 100 µM (inactive); with CAKI-1, > 100 µM (inactive); with COLO 205, > 100 µM (inactive); in the test with HCC 2998, > 100 µM (inactive); in the test with HCT-15, more than 100 µM; in the test with HOP-62, > 100 µM (inactive). Besides, the GI50 in the test on M14 was > 100 µM (inactive); in the test on Malme-3M it was > 100 µM (inactive); in the test with OVCAR-8 it was > 100 µM (inactive); with SK-MEL-2, > 100 µM (inactive); in the test on SNB-75, 43.6 µM (inactive); in the test with TK-10, > 100 µM (inactive). Further, the GI50 in the test on UACC-257 was > 100 µM (inactive).

As for `COc1ccc2ccccc2c1CN1CCOCCOCCN(Cc2c(OC)ccc3ccccc23)CCOCCOCC1`, the GI50 was > 83.4 µM (inactive) in the test with A498; > 100 µM (inactive) in the test on CAKI-1; > 90.4 µM (inactive) with COLO 205; 14.8 µM (inactive) in the test on HCC 2998; more than 91 µM in the test on HCT-15; > 100 µM (inactive) in the test with HOP-62. For the same compound, the GI50 with M14 is 17.1 µM (inactive); in the test with Malme-3M, > 45.9 µM (inactive); in the test on OVCAR-4 it was > 100 µM (inactive); in the test on OVCAR-8, > 100 µM (inactive); in the test on SK-MEL-2, 46.3 µM (inactive); with SNB-75, > 52.5 µM (inactive). Also, the GI50 with TK-10 is > 100 µM (inactive); with UACC-257 it was 45.2 µM (inactive); in the test on UACC-62, > 85.5 µM (inactive).

Take `CC(C)N(C(=O)C12C3C4C5(C(=O)O)C(C1C35I)C42C(=O)O)C(C)C` (stereo not given): the GI50 in the test with A498 is > 100 µM (inactive); with COLO 205, > 100 µM (inactive); in the test with HCC 2998, > 100 µM (inactive); in the test with HCT-15, more than 100 µM; with HOP-62, > 100 µM (inactive); in the test on M14, > 100 µM (inactive). For the same compound, the GI50 is > 100 µM (inactive) in the test on Malme-3M; > 100 µM (inactive) in the test on OVCAR-4; > 100 µM (inactive) in the test with OVCAR-8; 29.1 µM (inactive) in the test on SNB-75; > 100 µM (inactive) in the test with TK-10; > 100 µM (inactive) in the test with UACC-257. Also, in the test on UACC-62, the GI50 is > 100 µM (inactive).

Take `Clc1ccc(C(n2cc(Br)cn2)n2cc(Br)cn2)cc1`: the GI50 in the test on A498 is 18.3 µM (inactive); in the test with CAKI-1, 11.1 µM (inactive); in the test on COLO 205, 16.1 µM (inactive); in the test on HCC 2998, 16.4 µM (inactive); with HCT-15 it was 13.8 µM; in the test on HOP-62, 17.8 µM (inactive). The GI50 in the test on M14 was 16.8 µM (inactive); in the test on Malme-3M, 15.8 µM (inactive); with OVCAR-4, 12 µM (inactive); with OVCAR-8, 18.5 µM (inactive); in the test with SK-MEL-2, 16.8 µM (inactive); in the test on SNB-75, > 10 µM (inactive). In addition, the results for the GI50 in the test with TK-10, in the test with UACC-257 and in the test on UACC-62 were 17.4 µM (inactive), 14.7 µM (inactive) and 13.4 µM (inactive), respectively.

On to `COC(=O)c1nn(C(=N)c2ccc(Cl)cc2)c2c1CCCCC2`, for which the GI50 in the test on A498 is > 100 µM (inactive); in the test on CAKI-1 it was > 100 µM (inactive); in the test with COLO 205, > 100 µM (inactive); in the test with HCC 2998, > 100 µM (inactive); with HCT-15, more than 100 µM; in the test with HOP-62, > 100 µM (inactive). Also, the GI50 in the test with M14, in the test with Malme-3M, with OVCAR-4, with SK-MEL-2, in the test on SNB-75 and with TK-10 was > 100 µM (inactive) in each case. Besides, the GI50 with UACC-257 and in the test with UACC-62 was > 100 µM (inactive) in each case.

For the compound `CCOP(=S)(OCC)Oc1ccc2c(c1)OC(=O)C1(Cl)C2(C)C2(Cl)C(=O)Oc3cc(OP(=S)(OCC)OCC)ccc3C12C` (stereo not given), the GI50 in the test with A498 was 25.5 µM (inactive); in the test with CAKI-1, 19.8 µM (inactive); with COLO 205 it was 19.1 µM (inactive); in the test on HCC 2998 it was 17.7 µM (inactive); in the test with HCT-15 it was 20.4 µM; with HOP-62, 18.3 µM (inactive). Further, the GI50 in the test on M14 is 17.7 µM (inactive); with Malme-3M it was 22.6 µM (inactive); with OVCAR-4 it was 10.7 µM (inactive); in the test on OVCAR-8, 16.3 µM (inactive); in the test with SK-MEL-2 it was 20.4 µM (inactive); with SNB-75, 16.1 µM (inactive). For the same compound, the GI50 with TK-10 is 25.5 µM (inactive); with UACC-257, 17.7 µM (inactive); with UACC-62 it was 12.6 µM (inactive).

For `COC1=NCc2ccccc2-c2ccccc21`, the GI50 with HCT-15 is more than 100 µM; in the test with Malme-3M, > 100 µM (inactive); in the test with OVCAR-4, > 100 µM (inactive); in the test on OVCAR-8, > 100 µM (inactive); in the test on SK-MEL-2, > 100 µM (inactive); with SNB-75 it was > 100 µM (inactive). Further, the GI50 in the test on TK-10, in the test with UACC-257 and in the test with UACC-62 was > 100 µM (inactive) in each case.

Take `CO/C(=N\N=C\c1cc(OC)ccc1OC)c1ccncc1`: the GI50 is > 10 µM (inactive) in the test with A498; > 10 µM (inactive) in the test with COLO 205; > 10 µM (inactive) with HCC 2998; more than 10 µM in the test on HCT-15; > 10 µM (inactive) with HOP-62; > 10 µM (inactive) in the test on Malme-3M. Besides, the GI50 was > 10 µM (inactive) with OVCAR-8, > 10 µM (inactive) in the test with SK-MEL-2, 3.68 µM (inactive) in the test on SNB-75 and > 10 µM (inactive) with TK-10.

For `COC(=O)C1=C(c2cc(OC)c(OC)c(OC)c2)OC(c2ccc(OC)c(OC)c2)C1` (stereo not given), the GI50 in the test on A498 was 22.6 µM (inactive); with CAKI-1, > 100 µM (inactive); with COLO 205, 19.1 µM (inactive); in the test with HCC 2998, 54.7 µM (inactive); with HCT-15 it was 43.5 µM; in the test with HOP-62, 59.3 µM (inactive). Further, the GI50 was 61.1 µM (inactive) in the test with M14; > 100 µM (inactive) in the test with Malme-3M; 47.2 µM (inactive) in the test with OVCAR-4; 47.9 µM (inactive) in the test with OVCAR-8; 61.2 µM (inactive) in the test with SK-MEL-2; 66.1 µM (inactive) in the test with SNB-75. Further, the GI50 was 54.3 µM (inactive) in the test on TK-10, 40.6 µM (inactive) in the test with UACC-257 and 71.4 µM (inactive) in the test on UACC-62.

Regarding `CN(C)NC(=O)NC12CC3CC(CC(C3)C1)C2`, the GI50 with A498 is > 100 µM (inactive); with CAKI-1, > 100 µM (inactive); with COLO 205, > 100 µM (inactive); in the test with HCT-15, more than 100 µM; in the test on OVCAR-4, > 100 µM (inactive); in the test with OVCAR-8, > 100 µM (inactive). For the same compound, the GI50 with SK-MEL-2 was > 100 µM (inactive); in the test with SNB-75, > 100 µM (inactive); with TK-10, > 10 µM (inactive); with UACC-257, > 100 µM (inactive); with UACC-62, > 100 µM (inactive).

As for `CC12C(=CC(=O)CC1SCCS(=O)(=O)O)C(C#N)=C(N)N2c1ccc(Cl)c(Cl)c1` (stereo not given), the GI50 with A498 was > 100 µM (inactive); in the test on CAKI-1, > 100 µM (inactive); in the test on COLO 205 it was > 100 µM (inactive); in the test with HCC 2998, > 100 µM (inactive); in the test with HCT-15, more than 100 µM; with HOP-62, > 100 µM (inactive). Also, the GI50 with OVCAR-4, in the test with OVCAR-8, in the test with SK-MEL-2, with SNB-75, in the test on TK-10 and in the test on UACC-257 was > 100 µM (inactive) each time. The GI50 in the test with UACC-62 was > 100 µM (inactive).

`Cc1ccc(-n2c3nc(=O)n(C)c(=O)c-3nc3ccccc32)c(C)c1`: the GI50 was > 10 µM (inactive) in the test on A498; 27.6 µM (inactive) in the test with CAKI-1; 3.46 µM (inactive) in the test with COLO 205; 5.16 µM (inactive) with HCC 2998; 9.62 µM with HCT-15; 24.3 µM (inactive) with HOP-62. Further, the GI50 with M14 is 4.76 µM (inactive); in the test on Malme-3M, 3.92 µM (inactive); in the test on OVCAR-4, 12 µM (inactive); with OVCAR-8, 8.18 µM (inactive); with SK-MEL-2, 12.9 µM (inactive); in the test on SNB-75, 13.3 µM (inactive). Also, the GI50 is 13.2 µM (inactive) in the test with TK-10, 3.6 µM (inactive) with UACC-257 and 2.33 µM (inactive) in the test on UACC-62.
